The term IC50 denotes the midpoint of a concentration-inhibition curve. Read a high IC50 as a need for much substance.

Each structure is given as a SMILES string. Bounds are passed on as bounds.

Sequence of Hsp82 (P02829 whole entry): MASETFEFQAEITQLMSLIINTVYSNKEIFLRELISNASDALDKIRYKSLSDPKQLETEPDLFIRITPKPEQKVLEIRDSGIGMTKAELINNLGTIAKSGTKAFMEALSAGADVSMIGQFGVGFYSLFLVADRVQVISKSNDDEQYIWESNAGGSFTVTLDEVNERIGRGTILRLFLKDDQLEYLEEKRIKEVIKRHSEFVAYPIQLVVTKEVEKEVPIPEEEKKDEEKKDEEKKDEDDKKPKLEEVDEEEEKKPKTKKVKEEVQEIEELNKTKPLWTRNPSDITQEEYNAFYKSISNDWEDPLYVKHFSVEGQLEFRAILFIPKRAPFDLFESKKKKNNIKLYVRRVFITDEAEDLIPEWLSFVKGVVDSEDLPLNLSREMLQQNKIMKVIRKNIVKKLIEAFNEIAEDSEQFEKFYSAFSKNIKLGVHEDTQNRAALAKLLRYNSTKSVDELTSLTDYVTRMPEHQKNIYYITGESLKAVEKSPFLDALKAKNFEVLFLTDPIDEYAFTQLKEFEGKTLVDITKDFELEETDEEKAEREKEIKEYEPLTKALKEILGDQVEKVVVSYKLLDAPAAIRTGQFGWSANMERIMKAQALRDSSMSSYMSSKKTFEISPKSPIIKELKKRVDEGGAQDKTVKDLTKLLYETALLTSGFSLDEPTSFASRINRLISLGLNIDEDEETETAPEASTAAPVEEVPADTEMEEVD

This experiment addresses Hsp82 (Saccharomyces cerevisiae, UniProt P02829). Nature of the experiment: Hsp82 ATPase activity, pyruvate kinase/lactate dehydrogenase enzymatic coupling method (NADH absorbance at 340 nm). In kind it is biochemical. As to conditions: 1 μM Hsp82, 250 μM ATP, 37° C., PK/LDH coupled, initial rate. An excerpt:
The formation of ADP due to the ATPase activity of Hsp82 was used to develop another method for evaluating the enzymatic activity of this enzyme by application of an enzymatic coupling system involving pyruvate kinase (PK) and lactate dehydrogenase (LDH). In this kinetic-type spectrophotometric method, PK catalyses the formation of ATP and of pyruvate from phosphoenol pyruvate (PEP) and the ADP produced by Hsp82. The pyruvate formed, which is a substrate for LDH, is subsequently converted to lactate in the presence of NADH. In this case, the decrease in NADH concentration, measured through the decrease in absorbance at the wavelength of 340 nm, is proportional to the concentration of ADP produced by Hsp82.
The products tested are incubated in a reaction volume of 100 μl of buffer composed of 100 mM Hepes-NaOH (pH 7.5), 5 mM MgCl2, 1 mM DTT, 150 mM KCl, 0.3 mM NADH, 2.5 mM PEP and 250 μM ATP. This mixture is preincubated at 37° C. for 30 minutes before the addition of 3.77 units of LDH and 3.77 units of PK. The reaction is initiated by addition of the product to be evaluated, in varying concentrations, and of Hsp82, at the concentration of 1 μM. The enzymatic activity of Hsp82 is then measured continuously, in a microplate reader, at 37° C., at the wavelength of 340 nm. The initial rate of the reaction is obtained by measuring the slope of the tangent to the origin of the curve recorded. The enzymatic activity is expressed in μM of ADP formed per minute. The effect of the various products tested is expressed as capacity for inhibiting the ATPase activity according to the codification below: […]
With `O=C(NC1c2cccc(-c3nc4ccc(F)cc4[nH]3)c2-n2cccc21)c1ccnc2[nH]ccc12` (stereo not shown) [Example 1, 1H-pyrrolo[2,3-b]pyridine-4-carboxylic acid [5-(6-fluoro-1H-benzimidazol-2-yl)-9H-pyrrolo[1,2-a]indol-9-yl]amide], the IC50 was less than 1 µM.
To `O=C(NC1c2cccc(-c3nc4ccncc4[nH]3)c2-n2cccc21)c1cc(Cl)nc2[nH]ccc12` (stereo not shown) [Example 4, 6-chloro-1H-pyrrolo[2,3-b]pyridine-4-carboxylic acid [5-(3H-imidazo[4,5-c]pyridin-2-yl)-9H-pyrrolo[1,2-a]indol-9-yl]amide] belongs 1 to 10 µM; to `O=C(NC1c2cccc(-c3nc4ccncc4[nH]3)c2-n2cccc21)c1ccnc2[nH]ccc12` (stereo not shown) [Example 3, 1H-pyrrolo[2,3-b]pyridine-4-carboxylic acid [5-(3H-imidazo[4,5-c]pyridin-2-yl)-9H-pyrrolo[1,2-a]indol-9-yl]amide], less than 1 µM.
In turn, `O=C(NC1c2cccc(-c3cnc4ccccc4c3)c2-n2cccc21)c1ccnc2[nH]ccc12` (stereo not shown) [Example 2, 1H-pyrrolo[2,3-b]pyridine-4-carboxylic acid (5-quinolin-3-yl-9H-pyrrolo[1,2-a]indol-9-yl)amide] came in with an IC50 of 1 to 10 µM.

The values above are taken from patent publication US8178687B2, “Derivatives of pyrroloindole which are inhibitors of Hsp90, compositions containing same, and use thereof” (Sanofi-Aventis, priority 2009, dated 2012).
